Each structure is given as a SMILES string.

The values that follow come from patent publication US20260216057A1, “PHARMACEUTICAL COMPOSITIONS FOR HERPES VIRUS” (priority 2022, published 2026).

The conditions of data set [1]: cited from earlier work.
The next data set concerns recurrent genital HSV-2. As to conditions: 28 days daily oral dosing; pritelivir 100 mg (after 400 mg loading dose), valacyclovir 500 mg; cited from earlier work.
The nature of data set [2]: Example 6: pritelivir (dihydrate) suspension stability and solubility study. As to conditions: 0.9% NaCl + 0.5% polysorbate 80 vehicle, RT. The format is physicochemical. As to the method: An aqueous suspension of crystalline pritelivir free base (dihydrate) in a 0.9% NaCl+0.5% polysorbate 80 vehicle was prepared as follows: • 1) Vehicle (0.9% w/w NaCl and 0.5% w/w polysorbate 80) was prepared by dissolving NaCl and polysorbate 80 in water. • 2) Excess amounts of pritelivir (dihydrate) were weighed and added to the vehicle to achieve −3 mg/mL suspension. • 3) The suspension was sonicated for 15 minutes, then agitated at 500 rpm at room temperature. • 4) At 24 hours, the suspension was filtrated and the filter cake was dried and analyzed by XRPD. The filtrate was analyzed by HPLC to determine solubility. The HPLC methodology and conditions used to quantify pritelivir in the filtrate are described in Table 11.

In another data set the test system is recurrent genital herpes. The conditions noted are these: oral 100, 200, 400, 1200 mg; patients with recurrent genital herpes; cited from earlier work.

In the case of `Nc1nc2c(ncn2COCCO)c(=O)[nH]1` [acyclovir], the “human bioavailability following oral administration” value in data set [1] is reported as 10-20%. Turning to `CC(C)[C@H](N)C(=O)OCCOCn1cnc2c(=O)[nH]c(N)nc21` [valacyclovir], in the data set on recurrent genital HSV-2, the “HSV shedding, % of genital swabs analysed” value was 5.3%.

In general, solubility refers to how much of the substance goes into solution per volume. Consider `Cc1nc(N(C)C(=O)Cc2ccc(-c3ccccn3)cc2)sc1S(N)(=O)=O` [Dihydrate, N-methyl-N-(4-methyl-5-sulfamoyl-1,3-thiazol-2-yl)-2-[4-(pyridin-2-yl)phenyl]acetamide], for which, in data set [2] (0.9% NaCl + 0.5% polysorbate 80 aqueous vehicle, aqueous with cosolvent or surfactant or cyclodextrin, thermodynamic from solid, n = 1), the solubility at 24 h is 16.5 µg/mL. Also, the “Insoluble material (solid form by XRPD after solubility experiment)” value in data set [2] (24 hours) is “Dihydrate”. On to `Cc1cccc(C)c1N(CC(=O)Nc1ccc(-c2ncon2)cc1)C(=O)C1CCS(=O)(=O)CC1` [amenamevir], for which the “time to lesion healing vs placebo” value in the data set with recurrent genital herpes is “only significantly different between the very highest 1200 mg single dose group and the placebo-tested group”.
